Values joined by “and” are separate entries in the source; they are usually repeats but may differ in a detail not shown here. Equal values may be shown once. “Also recorded” adds a separate entry of the source.
How the values were obtained:
bladder cancer [1] = conditions: 5-ALA instilled, red light 633 nm, 30 and 50 J/cm^2; cited from earlier work
bladder cancer [2] = conditions: cited from earlier work
bladder cancer [3] = conditions: 5-ALA PDT after mitomycin, red laser light 635 nm, 18 mW/cm^2; cited from earlier work
[4] = tested on: superficial bladder tumors (rat bladder carcinoma cell line); assay: PDT with HAL and blue light in orthotopic rat bladder tumor model; type: in vivo; conditions: HAL 2 mg/ml (8 mM), 1 hour
Method: A rat bladder carcinoma cell line was used in these experiments to establish superficial bladder tumors in Female Fischer rats weighing 150-175 g as described in Francois, et al., J. Urol. 190(2), 2013, 731-736. The animals were used in the experiments 5 days after tumor cell inoculation.
Lyophilized HAL (in the form of Hexvix® powder) was dissolved in PBS to a final concentration of 2 mg/ml (8 mM). 0.5 ml of the solution was instilled into the rat bladder and was left in the bladder for about 1 hour. After evacuation of the HAL solution, 0.5 ml of PBS was instilled into the bladder and whole bladder irradiation with blue light at a fluence rate of 3.5 or 7.0 mW/cm^2 was performed using a 170 mW Modulight laser model ML 6500-405 delivering light at a wavelength of 401 nm, coupled to a fiber with a cylindrical diffuser (1×5 mm) model RD05/500/800 (Medlight, Ecublens, Switzerland) placed in a central position in the bladder. Rats received a blue light dose of 4.0 J/cm^2 (fluence rate 3.5 mW/cm^2) or 7.5 J/cm^2 (fluence rate 7.0 mW/cm^2)
For control, no Hexvix was instilled and only blue light irradiation was carried out at the aforementioned fluence rates/light doses.
The rats were sacrificed 48 hours after illumination by an overdose of pentobarbital. […]

bladder cancer [5] = conditions: patients with HAL-guided TUR prior to cystectomy, Kaplan-Meier, cited from earlier work
[6] = tested on: patient-derived bladder tumor; assay: Establishing in vitro primary cell cultures from bladder tumors resected after HAL/blue light TUR; type: cell-based, human; conditions: HAL/blue light group; blue light 1.5 to 12.5 mW/cm^2, 0.2 to 15.0 J/cm^2
Method: A solution of HAL (Hexvix®) was instilled into the bladder of patients through a catheter and was left in the bladder for about 1 hour. If the patient could not retain the composition for about 1 hour, at least about 1 hour was allowed to pass from the instillation of Hexvix® to the start of exposing the inside of the bladder to light. After evacuation of Hexvix®, a commercially available blue-light cystoscope was inserted into the bladder and a TUR was carried out by exposing the inside of the bladder to white light for the visual inspection, subsequent blue light exposure for fluorescence detection of bladder cancer lesions, resection of the detected lesions under white light and monitoring of the completeness of the resection by use of blue light. Blue light was provided at a fluence rate of 1.5 to 12.5 mW/cm^2 and a light dose of 0.2 to 15.0 J/cm^2 […] at a fluence rate of 3.0 to 22.0 mW/cm^2 and a light dose of 0.4 to 26.5 J/cm^2.
The resected bladder tumors were processed according to methods known in the art and primary cell cultures were established from said patient-derived bladder tumor under appropriate conditions in culture medium. […]

bladder cancer [7] = conditions: cited from earlier work; remark: listed apart in the source
[8] = tested on: non-muscle invasive papillary bladder cancer (NMIBC); assay: Phase III multicenter study, tumor recurrence after HAL blue light cystoscopy/TUR; type: in vivo, human; conditions: 9 months follow-up; for Tumor recurrence rate, All: HAL group (n = 271)
Method: A prospective, randomized, comparative, controlled phase III multicenter study was carried out in patients with non-muscle invasive papillary bladder cancer (NMIBC). The study population comprised 551 patients which were randomized into two groups (see below). The groups were similar in age, gender, race, bladder cancer history and prior intravesical therapy.
HAL group: 271 patients. The method of the invention was carried out as follows: A solution of HAL (Hexvix®) was instilled into the bladder of patients through a catheter and was left in the bladder for about 1 hour. If the patient could not retain the composition for about 1 hour, at least about 1 hour was allowed to pass from the instillation of Hexvix® to the start of exposing the inside of the bladder to light.
After evacuation of Hexvix®, cystoscopy was carried out with a commercially available cystoscope (blue and white light). The inside of the bladder was first exposed to white light and visually assessed, followed by exposure to blue light to detect cancerous lesions in the bladder. Transurethral resection (TUR) of the detected lesions was carried out under white light and completion of the resection was assessed under blue light.
White light group: 280 patients. Cystoscopy and TUR of bladder cancer under white light only, no HAL.
Patients from both groups with histologically confirmed Ta or T1 lesions were followed up by white light cystoscopy after 3, 6 and 9 months. All tumor recurrences during the 9 months follow-up period were histologically confirmed.
50 patients in the HAL group (18.5%) and 55 patients in the white light group (19.6%) received BCG treatment during the 9 months follow-up period. BCG (Bacillus Calmette-Guérin) is an immunotherapy agent for the treatment of bladder cancer. It is usually repeatedly instilled into the bladder.
Mitomycin is a chemotherapeutic agent for the treatment of bladder cancer. It may be instilled after TUR (single instillation) to e.g. prevent tumor cell seeding, i.e. re-attachment to the bladder wall of tumor cells which were dislocated during resection. Mitomycin was administered after TUR to 16 patients in the HAL group (5.9%) and to 20 patients in the white light group (7.1%).

MIBC = conditions: neoadjuvant cisplatin-containing chemotherapy; cited from earlier work

For `NCC(=O)CCC(=O)O` [5-ALA, 5-aminolevulinic acid], the “patients whose irritating urinary symptoms did not resolve before 2 weeks” value (bladder cancer [1]) is listed as 13%, the “side effects in the form of irritating urinary symptoms, occurrence” value (bladder cancer [1]) is listed as “occurred in all patients” and the “complaints of urinary frequency and urgency, occurrence” value (bladder cancer [2]; 5-ALA, white light 100 J/cm^2, 12 patients treated) is listed as “all patients complained about urinary frequency and urgency”. For the same compound, the “patients whose symptoms persisted for 3 weeks” value (bladder cancer [2]; of 12 patients treated) was 5 patients, the “patients whose symptoms subsided within a week” value (bladder cancer [2]; of 12 patients treated) was 7 patients and the “light dose considered the upper limit of tolerability in terms of side effects” value (bladder cancer [3]) was 25 J/cm^2.
In the case of `CCCCCCOC(=O)CCC(=O)CN` [HAL, n-hexyl 5-amino-4-oxo-pentanoate], the “bladder histology 48 hours after illumination (PDT effect)” value ([4]; blue light 3.5 mW/cm^2, 4 J/cm^2, n=2, one animal (50%) each) is listed as “no inflammation, persistent and chorion infiltrating tumors; also recorded: looked less compact and the superficial layer of said tumor was destroyed”, the “bladder histology 48 hours after illumination (PDT effect)” value ([4]; blue light 7.0 mW/cm^2, 7.5 J/cm^2, n=2) is listed as “increased tissue thickness/inflammation (both signs of PDT effect) and disintegrating/less compact tumor tissue” and the “3-year overall survival (OS)” value (bladder cancer [5]; 56.6% with white light) is listed as 65.0%. For the same compound, the “3-year recurrence-free survival (RFS)” value (bladder cancer [5]; 58.2% with white light TUR alone) was 69.8%, the “establishment of in vitro primary cell cultures from resected bladder tumors” value [6] was “No in vitro primary cell cultures could be established” and the “patients tumor-free at 21 months” value (bladder cancer [7]; 2 of 17 patients) was 11.8%. For the same compound, the “patients tumor-free at 9 months” value (bladder cancer [7]; 4 of 17 patients) was 23.5%, the “patients with severe adverse effects” value (bladder cancer [7]; 4 patients of 17) was 23.5% and the “patients tumor-free at 6 months” value (bladder cancer [7]; 9 of 17 patients) was 52.9%. For the same compound, the “number of adverse effects reported” value (bladder cancer [7]; HAL 8 mM and 16 mM, white light 25-100 J/cm^2, 3 PDTs, 17 patients) was 128, the “patients with adverse effects” value (bladder cancer [7]; HAL 8 mM and 16 mM, white light, 3 PDTs) was “about 88%” and the “number of severe adverse effects reported” value (bladder cancer [7]; in 4 patients, 2 considered to relate to the PDT) was 7. For the same compound, the “Tumor recurrence rate, All” value ([8]; Table 1 and text) was 42.7% and 47.2%, the “Tumor recurrence rate, All” value ([8]; Table 2) was 47.2% and the “Tumor recurrence rate, Received BCG and/or mitomycin” value ([8]; HAL group) was 41.5%. The “Tumor recurrence rate, Received no BCG and/or mitomycin” value ([8]; HAL group) was 49.0%, the “Tumor recurrence rate, No BCG” value ([8]; HAL group, patients who did not receive BCG) was 49.3% and the “Tumor recurrence rate, Received BCG” value ([8]; HAL group, patients who received BCG) was 38.0%.
In the case of `N.N.[Cl][Pt][Cl]` [cisplatin], the “absolute improvement in survival at 5 years” value (MIBC) is given as 5%.

Source: patent publication US11980772B2, “Method of photodynamic therapy (PDT) for bladder cancer” (priority 2015, dated 2024)
